Counter-ions that a name gives are not always drawn. Like-named read-outs stand apart in the source and are kept apart here.
How the values were obtained:
[1] = molecular target: T1, baculovirus-expressed ALK (Homo sapiens, UniProt Q9UM73); experiment: ALK Kinase Assay (ELISA-type, time-resolved fluorescence); format: biochemical
T1 construct: host or cells: baculovirus expression system
Summary of the method: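 Substrate coating: phospholipase C-γ, 10 μg/mL in TBS. Kinase step: 30 ng/ml ALK, 15 min, 37° C. Detection and analysis: Eu-N1 PT66 antibody, with IC50 fitted as a sigmoidal variable-slope dose-response curve.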

[2] = molecular target: T2, c-Met (cytoplasmic domain) (Homo sapiens, UniProt P08581); experiment: c-Met Kinase Assay (same methods as for ALK, with modifications); format: biochemical
T2 construct: 10 ng/mL c-Met (cytoplasmic domain, Invitrogen Corporation #PV3143); purchased Invitrogen Corporation PV3143
T2 sequence (P08581 956-1390 limits assumed): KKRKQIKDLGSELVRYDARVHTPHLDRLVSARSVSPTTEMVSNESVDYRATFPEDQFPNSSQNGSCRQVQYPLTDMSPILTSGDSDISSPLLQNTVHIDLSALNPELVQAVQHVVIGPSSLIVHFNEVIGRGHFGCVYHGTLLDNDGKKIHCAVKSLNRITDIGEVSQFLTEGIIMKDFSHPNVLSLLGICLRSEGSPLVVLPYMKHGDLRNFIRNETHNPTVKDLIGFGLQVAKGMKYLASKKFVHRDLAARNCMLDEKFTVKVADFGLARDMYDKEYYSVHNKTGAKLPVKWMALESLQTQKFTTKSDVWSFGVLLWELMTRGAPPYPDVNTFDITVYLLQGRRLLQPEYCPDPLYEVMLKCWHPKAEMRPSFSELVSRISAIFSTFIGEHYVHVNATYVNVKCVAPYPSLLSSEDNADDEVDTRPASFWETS
Description: Briefly, each 96-well plate was coated with 100 μL/well of 10 μg/mL substrate (phospholipase C-γ) in Tris-buffered saline (TBS). […] The reaction was initiated by adding enzyme (30 ng/ml ALK) and was allowed to proceed at 37° C. for 15 minutes. Detection of the phosphorylated product was performed by adding 100 μl/well of Eu-N1 labeled PT66 antibody (Perkin Elmer # AD0041).
Data analysis was performed using ActivityBase (IDBS, Guilford, UK). IC50 values were calculated by plotting percent inhibition versus log10 of the concentration of compound and fitting to the nonlinear regression sigmoidal dose-response (variable slope) equation in XLFit (IDBS, Guilford, UK).
Reactions were initiated with 10 ng/mL c-Met (cytoplasmic domain, Invitrogen Corporation #PV3143).

[3] = 1 μM ATP (Km level), read-out: ALK Activity (ALK Kinase Inhibition, IC50)
[4] = 1 μM ATP (Km level), read-out: cMet Activity (c-Met Kinase Inhibition, IC50)
[5] = 1 μM ATP (Km level), 30 ng/ml ALK, 37° C., 15 minutes, read-out: ALK Activity (ALK kinase inhibition, IC50 class)
[6] = ALK kinase inhibition, 1 μM ATP (Km level), read-out: ALK Activity
[7] = c-Met kinase inhibition, 1 μM ATP (Km level), read-out: cMet Activity

T1 sequence (Q9UM73 19-1620): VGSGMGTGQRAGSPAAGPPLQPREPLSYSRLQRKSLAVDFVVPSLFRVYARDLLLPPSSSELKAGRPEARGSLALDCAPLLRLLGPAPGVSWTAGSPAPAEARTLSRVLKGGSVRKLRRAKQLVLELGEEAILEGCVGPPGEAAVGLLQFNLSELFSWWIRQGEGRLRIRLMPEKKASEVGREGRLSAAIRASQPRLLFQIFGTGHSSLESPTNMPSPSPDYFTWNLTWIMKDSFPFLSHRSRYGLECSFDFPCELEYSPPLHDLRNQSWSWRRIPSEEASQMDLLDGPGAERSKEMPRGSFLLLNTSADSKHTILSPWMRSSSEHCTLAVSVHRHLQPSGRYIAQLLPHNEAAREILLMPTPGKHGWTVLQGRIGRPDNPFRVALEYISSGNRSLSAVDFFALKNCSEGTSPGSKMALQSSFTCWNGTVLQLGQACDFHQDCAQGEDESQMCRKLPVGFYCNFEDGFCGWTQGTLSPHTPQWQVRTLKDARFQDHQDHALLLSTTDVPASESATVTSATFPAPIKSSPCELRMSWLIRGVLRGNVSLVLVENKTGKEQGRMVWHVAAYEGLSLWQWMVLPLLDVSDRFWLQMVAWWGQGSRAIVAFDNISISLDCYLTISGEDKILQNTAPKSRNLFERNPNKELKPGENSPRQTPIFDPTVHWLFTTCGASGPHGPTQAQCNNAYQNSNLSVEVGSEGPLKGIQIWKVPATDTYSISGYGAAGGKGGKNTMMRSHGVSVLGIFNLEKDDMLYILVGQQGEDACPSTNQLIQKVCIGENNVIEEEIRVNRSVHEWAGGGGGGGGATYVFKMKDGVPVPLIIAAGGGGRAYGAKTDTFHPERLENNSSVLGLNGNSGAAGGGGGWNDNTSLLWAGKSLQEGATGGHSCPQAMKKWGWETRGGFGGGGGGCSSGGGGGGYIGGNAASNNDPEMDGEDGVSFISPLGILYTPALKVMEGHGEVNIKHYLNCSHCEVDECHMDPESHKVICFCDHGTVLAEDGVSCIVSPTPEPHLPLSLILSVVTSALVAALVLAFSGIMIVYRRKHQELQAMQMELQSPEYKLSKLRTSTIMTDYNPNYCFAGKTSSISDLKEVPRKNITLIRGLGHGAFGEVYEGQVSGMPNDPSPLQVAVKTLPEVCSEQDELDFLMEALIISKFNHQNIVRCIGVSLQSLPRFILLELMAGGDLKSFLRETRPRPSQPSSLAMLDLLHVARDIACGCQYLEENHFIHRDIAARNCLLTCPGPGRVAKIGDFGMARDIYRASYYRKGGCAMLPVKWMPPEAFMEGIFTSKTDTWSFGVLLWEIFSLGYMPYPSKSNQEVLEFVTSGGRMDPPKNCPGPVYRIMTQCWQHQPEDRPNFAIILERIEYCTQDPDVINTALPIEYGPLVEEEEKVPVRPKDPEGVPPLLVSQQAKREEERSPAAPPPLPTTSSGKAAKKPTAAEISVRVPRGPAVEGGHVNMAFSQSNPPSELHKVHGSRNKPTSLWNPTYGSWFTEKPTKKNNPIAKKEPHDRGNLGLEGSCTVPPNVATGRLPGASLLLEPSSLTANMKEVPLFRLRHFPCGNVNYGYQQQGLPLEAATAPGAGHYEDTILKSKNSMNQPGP

SMILES | IC50 [1, 6] | IC50 [2, 7] | other results
COc1c(Nc2ncc(Cl)c(Nc3ccccc3S(=O)(=O)N3CCCC3)n2)ccc2c1CCC(N1CCCC(O)C1)CC2 (mixture of isomers) [Example 908, 1-(2-{5-Chloro-4-[2-(pyrrolidine-1-sulfonyl)-phenylamino]-pyrimidin-2-ylamino}-1-methoxy-6,7,8,9-tetrahydro-5H-benzocyclohepten-7-yl)-piperidin-3-ol] |  |  | IC50 [1, 3]: < 100 nM; IC50 [2, 4]: 1000 to 10000 nM
COc1cc(N2CCOCC2)ccc1Nc1nc(Nc2ccc3c(c2OC)CCC(N2CCCC(O)C2)CC3)ncc1Cl (mixture of isomers) [Example 913, 1-{2-[5-Chloro-4-(2-methoxy-4-morpholin-4-yl-phenylamino)-pyrimidin-2-ylamino]-1-methoxy-6,7,8,9-tetrahydro-5H-benzocyclohepten-7-yl}-piperidin-3-ol] |  |  | IC50 [1, 3]: < 100 nM; IC50 [2, 4]: > 10000 nM
COc1c(Nc2ncc(Cl)c(N[C@H]3[C@@H](C(N)=O)[C@@H]4C=C[C@H]3C4)n2)ccc2c1CC(N1CCOCC1)CCC2 (mixture of isomers) [Example 1204, (1S,2S,3R,4R)-3-[5-Chloro-2-(1-methoxy-8-morpholin-4-yl-6,7,8,9-tetrahydro-5H-benzocyclohepten-2-ylamino)-pyrimidin-4-ylamino]-bicyclo[2.2.1]hept-5-ene-2-carboxylic acid amide] |  |  | IC50 [1, 5]: < 100 nM; IC50 ([2]; cMet Activity (c-Met kinase inhibition, IC50 class), 1 μM ATP (Km level), 10 ng/mL c-Met): > 10000 nM
CN([C@@H]1CCCC[C@H]1Nc1nc(Nc2ccc3c(c2)CCC(N2CCOCC2)CC3)ncc1Cl)S(C)(=O)=O (mixture of isomers) [Example 1681, N-{(1R,2R)-2-[5-Chloro-2-(7-morpholin-4-yl-6,7,8,9-tetrahydro-5H-benzocyclohepten-2-ylamino)-pyrimidin-4-ylamino]-cyclohexyl}-N-methyl-methanesulfonamide] |  |  | IC50 ([1]; ALK kinase inhibition, 1 μM ATP, read-out: ALK Activity): < 100 nM; IC50 ([2]; c-Met kinase inhibition, 1 μM ATP, read-out: cMet Activity): 1000 to 10000 nM
CCN1C2CCC1c1cc(Nc3ncc(Cl)c(Nc4ccccc4C(=O)NC)n3)ccc1C2 (racemic) [Example 101, (+/−)-2-[5-Chloro-2-(12-ethyl-12-aza-tricyclo[7.2.1.0*2,7*]dodeca-2(7),3,5-trien-4-ylamino)-pyrimidin-4-ylamino]-N-methyl-benzamide] | < 100 nM | < 100 nM | 
CNC(=O)c1ccccc1Nc1nc(Nc2ccc3c(c2)C2CCC(C3)N2S(C)(=O)=O)ncc1Cl (racemic) [Example 102, (+/−)-2-[5-Chloro-2-(12-methanesulfonyl-12-aza-tricyclo[7.2.1.0*2,7*]dodeca-2(7),3,5-trien-4-ylamino)-pyrimidin-4-ylamino]-N-methyl-benzamide] | < 100 nM | < 100 nM | 
CNC(=O)c1cccc(F)c1Nc1nc(Nc2ccc3c(c2)CCC(N2CCN(C)CC2)CC3)ncc1Cl (racemic) [Example 899, 2-{5-Chloro-2-[7-(4-methyl-piperazin-1-yl)-6,7,8,9-tetrahydro-5H-benzocyclohepten-2-ylamino]-pyrimidin-4-ylamino}-3-fluoro-N-methyl-benzamide] |  |  | IC50 [1, 3]: < 100 nM; IC50 [2, 4]: < 100 nM
COc1c(Nc2ncc(Cl)c(Nc3ccccc3S(=O)(=O)C(C)C)n2)ccc2c1CCC(N1CCN(C)CC1)CC2 (racemic) [Example 914, 5-Chloro-N*2*-[1-methoxy-7-(4-methyl-piperazin-1-yl)-6,7,8,9-tetrahydro-5H-benzocyclohepten-2-yl]-N*4*-[2-(propane-2-sulfonyl)-phenyl]-pyrimidine-2,4-diamine] |  |  | IC50 [1, 3]: < 100 nM; IC50 [2, 4]: 1000 to 10000 nM
CNC(=O)c1ccccc1Nc1nc(Nc2ccc3c(c2OC)CCC(N2CCOCC2)CC3)ncc1Cl (racemic) [Example 915, 2-[5-Chloro-2-(1-methoxy-7-morpholin-4-yl-6,7,8,9-tetrahydro-5H-benzocyclohepten-2-ylamino)-pyrimidin-4-ylamino]-N-methyl-benzamide] |  |  | IC50 [1, 3]: < 100 nM; IC50 [2, 4]: 1000 to 10000 nM
COc1c(Nc2ncc(Cl)c(Nc3ccccc3S(=O)(=O)N(C)C)n2)ccc2c1CC(N1CCOCC1)CCC2 (racemic) [Example 1210, 2-[5-Chloro-2-(1-methoxy-8-morpholin-4-yl-6,7,8,9-tetrahydro-5H-benzocyclohepten-2-ylamino)-pyrimidin-4-ylamino]-N,N-dimethyl-benzenesulfonamide] |  |  | IC50 [1, 5]: < 100 nM; IC50 ([2]; 1 μM ATP (Km level), 10 ng/mL c-Met, read-out: cMet Activity (c-Met kinase inhibition, IC50 class)): 1000 to 10000 nM
CCN1C(=O)CCCc2cc(Nc3ncc(Cl)c(N[C@@H]4[C@H]5CC[C@H](C5)[C@@H]4C(N)=O)n3)c(OC)cc21 (relative stereo) [Example 136, (2-exo,3-exo)-3-[5-Chloro-2-(1-ethyl-8-methoxy-2-oxo-2,3,4,5-tetrahydro-1H-benzo[b]azepin-7-ylamino)-pyrimidin-4-ylamino]-bicyclo[2.2.1]heptane-2-carboxylic acid amide] | < 100 nM | > 10000 nM | 
COc1c(Nc2ncc(Cl)c(N[C@H]3[C@@H](C(N)=O)[C@@H]4C=C[C@H]3C4)n2)ccc2c1CCCC(=O)N2 (relative stereo) [Example 139, (2-exo,3-exo)-3-[5-Chloro-2-(6-methoxy-2-oxo-2,3,4,5-tetrahydro-1H-benzo[b]azepin-7-ylamino)-pyrimidin-4-ylamino]-bicyclo[2.2.1]hept-5-ene-2-carboxylic acid amide] | < 100 nM | > 10000 nM | 
NC(=O)[C@@H]1[C@H](Nc2nc(Nc3ccc4c(c3)CCC(=O)CC4)ncc2Cl)[C@H]2C=C[C@@H]1C2 (relative stereo) [Example 173, (2-exo,3-exo)-3-[5-Chloro-2-(7-oxo-6,7,8,9-tetrahydro-5H-benzocyclo-hepten-2-ylamino)-pyrimidin-4-ylamino]-bicyclo[2.2.1]hept-5-ene-2-carboxylic acid amide; hydrochloride] | < 100 nM | 100 to 1000 nM | 
CCN1CCc2ccc(Nc3ncc(Cl)c(N[C@H]4CCC[C@H]4C(N)=O)n3)cc2CC1 (relative stereo) [Example 176, Cis-2-[5-Chloro-2-(3-ethyl-2,3,4,5-tetrahydro-1H-benzo[d]-azepin-7-ylamino)-pyrimidin-4-ylamino]-cyclopentanecarboxylic acid amide] | 100 to 1000 nM | 1000 to 10000 nM | 
CCN1CCc2ccc(Nc3ncc(Cl)c(N[C@H]4CCCC[C@H]4C(=O)NC)n3)cc2CC1 (relative stereo) [Example 200, cis-2-[5-Chloro-2-(3-ethyl-2,3,4,5-tetrahydro-1H-benzo[d]azepin-7-ylamino)-pyrimidin-4-ylamino]-cyclohexanecarboxylic acid methylamide] | < 100 nM | 100 to 1000 nM | 
COCCN1CCc2ccc(OC)c(Nc3ncc(Cl)c(N[C@H]4[C@@H](C(N)=O)[C@@H]5C=C[C@H]4C5)n3)c2CC1 (relative stereo) [Example 245, (2-exo,3-exo)-3-{5-Chloro-2-[7-methoxy-3-(2-methoxy-ethyl)-2,3,4,5-tetrahydro-1H-benzo[d]azepin-6-ylamino]-pyrimidin-4-ylamino}-bicyclo[2.2.1]hept-5-ene-2-carboxylic acid amide] | 1000 to 10000 nM | > 10000 nM | 
COc1cc2c(cc1Nc1ncc(Cl)c(N[C@@H]3[C@H](C(N)=O)[C@H]4C=C[C@@H]3C4)n1)CCN(CC(F)(F)F)CC2 (relative stereo) [Example 250, (2-exo, 3-exo)-3-{5-Chloro-2-[8-methoxy-3-(2,2,2-trifluoro-ethyl)-2,3,4,5-tetrahydro-1H-benzo[d]azepin-7-ylamino]-pyrimidin-4-ylamino}-bicyclo[2.2.1]hept-5-ene-2-carboxylic acid amide hydrochloride] | < 100 nM | > 10000 nM | 
COCCN1CCc2ccc(Nc3ncc(Cl)c(N[C@@H]4CCCC[C@H]4O)n3)cc2CC1 (relative stereo) [Example 318, trans-2-{5-Chloro-2-[3-(2-methoxy-ethyl)-2,3,4,5-tetrahydro-1H-benzo[d]azepin-7-ylamino]-pyrimidin-4-ylamino}-cyclohexanol] | 1000 to 10000 nM | > 10000 nM | 
CCN1CCc2ccc(Nc3ncc(Cl)c(N[C@@H]4CCCC[C@H]4O)n3)cc2CC1 (relative stereo) [Example 319, trans-2-[5-Chloro-2-(3-ethyl-2,3,4,5-tetrahydro-1H-benzo[d]azepin-7-ylamino)-pyrimidin-4-ylamino]-cyclohexanol] | 100 to 1000 nM | > 10000 nM | 
C#CCN1CCc2ccc(Nc3ncc(Cl)c(N[C@H]4[C@@H](C(N)=O)[C@@H]5C=C[C@H]4C5)n3)cc2CC1 (relative stereo) [Example 323, (2-exo, 3-exo)-3-[5-Chloro-2-(3-prop-2-ynyl-2,3,4,5-tetrahydro-1H-benzo[d]azepin-7-ylamino)-pyrimidin-4-ylamino]-bicyclo[2.2.1]hept-5-ene-2-carboxylic acid amide] | < 100 nM | 100 to 1000 nM | 

Source: patent US8148391B2 (Cephalon, Inc., priority 2006, dated 2012)
